Data as given in PMC10824666 (Nature Cancer, 2023).
Read-outs that look alike come from different tables or passages of the source. Values belong to the molecule of their own block, whether it stands above or below them.

Key:
Experiment in all cases: biochemical
Parameters in all cases: Eurofins DiscoverX kinase panel, competitive binding assay at 1 uM, percent of DMSO control
Conditions in all cases: competitive binding, percent of DMSO control
ALK = ALK (Homo sapiens, UniProt Q9UM73)
How it was run: (§1)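 Competitive binding assay across a 96-kinase panel with KIF18A compounds at 1 µM; values given as percentage of control (POC), single experiment.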

Abl_phos = target: T1, Abl_phos (Homo sapiens, UniProt P00519)
T1 construct: gene ABL1; phosphorylated
T1 sequence (P00519 whole entry): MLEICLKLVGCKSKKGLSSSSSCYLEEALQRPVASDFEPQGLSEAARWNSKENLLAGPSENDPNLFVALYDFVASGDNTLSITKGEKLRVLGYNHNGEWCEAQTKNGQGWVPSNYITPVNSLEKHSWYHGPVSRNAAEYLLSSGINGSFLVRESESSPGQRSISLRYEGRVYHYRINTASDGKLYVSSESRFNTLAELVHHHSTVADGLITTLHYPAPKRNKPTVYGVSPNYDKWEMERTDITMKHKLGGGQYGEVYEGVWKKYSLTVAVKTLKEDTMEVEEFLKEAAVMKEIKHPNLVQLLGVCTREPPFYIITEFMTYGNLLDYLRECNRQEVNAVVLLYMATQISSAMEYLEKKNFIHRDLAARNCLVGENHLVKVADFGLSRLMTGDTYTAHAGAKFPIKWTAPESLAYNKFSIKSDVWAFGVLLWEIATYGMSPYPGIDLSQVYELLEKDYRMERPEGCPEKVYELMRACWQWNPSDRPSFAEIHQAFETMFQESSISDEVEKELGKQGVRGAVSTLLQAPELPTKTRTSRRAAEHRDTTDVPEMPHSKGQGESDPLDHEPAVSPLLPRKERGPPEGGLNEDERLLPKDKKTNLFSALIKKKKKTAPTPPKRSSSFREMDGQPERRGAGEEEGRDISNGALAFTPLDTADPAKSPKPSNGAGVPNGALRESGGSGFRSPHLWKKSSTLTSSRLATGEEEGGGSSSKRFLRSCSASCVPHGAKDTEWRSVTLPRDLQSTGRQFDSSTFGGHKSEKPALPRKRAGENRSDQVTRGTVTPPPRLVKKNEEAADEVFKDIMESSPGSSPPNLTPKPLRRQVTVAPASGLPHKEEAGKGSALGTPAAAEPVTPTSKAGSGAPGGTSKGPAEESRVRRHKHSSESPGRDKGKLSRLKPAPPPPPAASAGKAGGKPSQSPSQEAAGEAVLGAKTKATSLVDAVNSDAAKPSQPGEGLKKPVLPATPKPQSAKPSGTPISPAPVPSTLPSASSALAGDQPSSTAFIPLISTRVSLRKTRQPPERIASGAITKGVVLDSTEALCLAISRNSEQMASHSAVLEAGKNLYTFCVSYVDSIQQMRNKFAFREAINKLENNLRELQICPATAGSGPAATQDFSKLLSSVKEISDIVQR
How it was run: as §1

BMPR1A = BMPR1A (Homo sapiens, UniProt P36894)
How it was run: as §1

Brk = target: T2, Brk (Homo sapiens, UniProt Q13882)
T2 construct: gene PTK6
T2 sequence (Q13882 whole entry): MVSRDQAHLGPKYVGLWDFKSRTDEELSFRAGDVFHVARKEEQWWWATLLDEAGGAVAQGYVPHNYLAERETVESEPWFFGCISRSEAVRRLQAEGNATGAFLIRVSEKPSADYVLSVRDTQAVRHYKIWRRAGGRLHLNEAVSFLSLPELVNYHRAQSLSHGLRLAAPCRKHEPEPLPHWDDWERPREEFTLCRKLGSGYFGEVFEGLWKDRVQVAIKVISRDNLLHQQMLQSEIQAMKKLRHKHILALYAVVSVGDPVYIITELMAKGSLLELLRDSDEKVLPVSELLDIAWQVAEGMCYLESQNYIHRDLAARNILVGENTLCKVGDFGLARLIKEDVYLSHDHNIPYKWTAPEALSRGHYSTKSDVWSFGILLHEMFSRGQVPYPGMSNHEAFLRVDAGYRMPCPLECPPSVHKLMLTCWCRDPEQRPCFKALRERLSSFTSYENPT
How it was run: as §1

CDK4 = CDK4 (Homo sapiens, UniProt P11802)
Chain of CDK4 (P11802 whole entry): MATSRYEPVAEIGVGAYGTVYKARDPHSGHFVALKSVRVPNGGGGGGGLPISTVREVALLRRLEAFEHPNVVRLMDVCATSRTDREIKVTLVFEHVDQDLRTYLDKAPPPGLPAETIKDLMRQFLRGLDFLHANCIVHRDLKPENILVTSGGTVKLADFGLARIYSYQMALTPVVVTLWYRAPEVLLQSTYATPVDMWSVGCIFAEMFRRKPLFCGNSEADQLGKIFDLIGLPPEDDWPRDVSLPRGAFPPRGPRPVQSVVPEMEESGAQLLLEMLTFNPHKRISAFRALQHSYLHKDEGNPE
How it was run: as §1

MLTK = target: T3, MLTK (Homo sapiens, UniProt Q9NYL2)
T3 construct: gene MAP3K20
T3 sequence (Q9NYL2 whole entry): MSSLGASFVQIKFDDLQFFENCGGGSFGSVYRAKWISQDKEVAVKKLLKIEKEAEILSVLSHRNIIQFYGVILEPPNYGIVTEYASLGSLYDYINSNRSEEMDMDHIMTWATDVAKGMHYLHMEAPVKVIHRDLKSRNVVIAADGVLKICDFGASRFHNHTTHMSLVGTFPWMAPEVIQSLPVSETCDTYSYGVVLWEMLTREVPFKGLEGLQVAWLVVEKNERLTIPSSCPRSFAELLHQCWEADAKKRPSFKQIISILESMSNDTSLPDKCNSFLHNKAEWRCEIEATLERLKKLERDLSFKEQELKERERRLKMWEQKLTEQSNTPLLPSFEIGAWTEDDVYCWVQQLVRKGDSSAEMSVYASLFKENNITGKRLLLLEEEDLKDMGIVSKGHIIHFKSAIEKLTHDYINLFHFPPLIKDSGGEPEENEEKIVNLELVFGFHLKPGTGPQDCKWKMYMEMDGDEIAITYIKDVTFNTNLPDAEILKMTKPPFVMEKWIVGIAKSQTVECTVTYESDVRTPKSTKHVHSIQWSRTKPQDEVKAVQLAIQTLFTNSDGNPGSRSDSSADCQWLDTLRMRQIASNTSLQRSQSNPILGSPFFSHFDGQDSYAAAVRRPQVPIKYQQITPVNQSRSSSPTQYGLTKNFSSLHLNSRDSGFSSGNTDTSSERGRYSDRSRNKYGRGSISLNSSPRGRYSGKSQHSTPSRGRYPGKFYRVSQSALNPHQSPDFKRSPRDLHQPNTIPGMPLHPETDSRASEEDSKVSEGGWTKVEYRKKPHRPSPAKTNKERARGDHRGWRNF
How it was run: as §1

STK32B = STK32B (Homo sapiens, UniProt Q9NY57)
Chain of STK32B (Q9NY57 whole entry): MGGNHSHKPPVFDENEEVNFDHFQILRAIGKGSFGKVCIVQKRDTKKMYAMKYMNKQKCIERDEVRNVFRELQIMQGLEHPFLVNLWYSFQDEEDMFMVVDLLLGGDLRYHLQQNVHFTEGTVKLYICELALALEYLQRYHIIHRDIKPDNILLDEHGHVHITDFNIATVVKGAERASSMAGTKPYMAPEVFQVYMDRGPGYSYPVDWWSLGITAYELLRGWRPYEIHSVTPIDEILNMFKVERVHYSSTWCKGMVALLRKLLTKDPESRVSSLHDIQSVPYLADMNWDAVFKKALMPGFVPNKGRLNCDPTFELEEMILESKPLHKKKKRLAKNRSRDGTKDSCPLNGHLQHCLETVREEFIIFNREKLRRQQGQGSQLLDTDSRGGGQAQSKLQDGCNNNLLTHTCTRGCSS
How it was run: as §1

TBK1 = target: T4, TBK1 (Homo sapiens, UniProt Q9UHD2)
T4 sequence (Q9UHD2 1-729): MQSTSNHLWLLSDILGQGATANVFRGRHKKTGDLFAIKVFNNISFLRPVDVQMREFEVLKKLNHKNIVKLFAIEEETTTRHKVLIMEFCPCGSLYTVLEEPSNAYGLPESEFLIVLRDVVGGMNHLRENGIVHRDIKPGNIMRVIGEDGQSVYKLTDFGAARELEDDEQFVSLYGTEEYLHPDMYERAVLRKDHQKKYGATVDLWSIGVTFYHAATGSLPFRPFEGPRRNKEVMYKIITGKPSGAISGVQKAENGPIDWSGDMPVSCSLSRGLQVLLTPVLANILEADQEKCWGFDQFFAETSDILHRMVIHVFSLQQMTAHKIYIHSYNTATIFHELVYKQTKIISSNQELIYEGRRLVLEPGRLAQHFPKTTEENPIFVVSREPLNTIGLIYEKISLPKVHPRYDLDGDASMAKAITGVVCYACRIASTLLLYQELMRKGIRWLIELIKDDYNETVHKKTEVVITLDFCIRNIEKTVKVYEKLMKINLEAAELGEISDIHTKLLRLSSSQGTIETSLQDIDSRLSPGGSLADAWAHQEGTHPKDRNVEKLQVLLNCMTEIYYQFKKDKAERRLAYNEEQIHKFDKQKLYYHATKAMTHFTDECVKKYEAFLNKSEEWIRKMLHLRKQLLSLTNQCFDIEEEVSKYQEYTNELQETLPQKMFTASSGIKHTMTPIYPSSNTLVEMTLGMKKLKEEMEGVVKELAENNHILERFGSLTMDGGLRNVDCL
How it was run: as §1

mTOR = mTOR (Homo sapiens, UniProt P42345)
How it was run: as §1

[1] = read-out: Kinome Profiling performed by Eurofins DiscoverX / AM-1882, 1.0 µM / POC
[2] = read-out: Kinome Profiling performed by Eurofins DiscoverX / AM-5308, 1.0 µM / POC
[3] = read-out: Kinome Profiling performed by Eurofins DiscoverX / AM-0277, 1.0 µM / POC

Chain of ALK (Q9UM73 whole entry): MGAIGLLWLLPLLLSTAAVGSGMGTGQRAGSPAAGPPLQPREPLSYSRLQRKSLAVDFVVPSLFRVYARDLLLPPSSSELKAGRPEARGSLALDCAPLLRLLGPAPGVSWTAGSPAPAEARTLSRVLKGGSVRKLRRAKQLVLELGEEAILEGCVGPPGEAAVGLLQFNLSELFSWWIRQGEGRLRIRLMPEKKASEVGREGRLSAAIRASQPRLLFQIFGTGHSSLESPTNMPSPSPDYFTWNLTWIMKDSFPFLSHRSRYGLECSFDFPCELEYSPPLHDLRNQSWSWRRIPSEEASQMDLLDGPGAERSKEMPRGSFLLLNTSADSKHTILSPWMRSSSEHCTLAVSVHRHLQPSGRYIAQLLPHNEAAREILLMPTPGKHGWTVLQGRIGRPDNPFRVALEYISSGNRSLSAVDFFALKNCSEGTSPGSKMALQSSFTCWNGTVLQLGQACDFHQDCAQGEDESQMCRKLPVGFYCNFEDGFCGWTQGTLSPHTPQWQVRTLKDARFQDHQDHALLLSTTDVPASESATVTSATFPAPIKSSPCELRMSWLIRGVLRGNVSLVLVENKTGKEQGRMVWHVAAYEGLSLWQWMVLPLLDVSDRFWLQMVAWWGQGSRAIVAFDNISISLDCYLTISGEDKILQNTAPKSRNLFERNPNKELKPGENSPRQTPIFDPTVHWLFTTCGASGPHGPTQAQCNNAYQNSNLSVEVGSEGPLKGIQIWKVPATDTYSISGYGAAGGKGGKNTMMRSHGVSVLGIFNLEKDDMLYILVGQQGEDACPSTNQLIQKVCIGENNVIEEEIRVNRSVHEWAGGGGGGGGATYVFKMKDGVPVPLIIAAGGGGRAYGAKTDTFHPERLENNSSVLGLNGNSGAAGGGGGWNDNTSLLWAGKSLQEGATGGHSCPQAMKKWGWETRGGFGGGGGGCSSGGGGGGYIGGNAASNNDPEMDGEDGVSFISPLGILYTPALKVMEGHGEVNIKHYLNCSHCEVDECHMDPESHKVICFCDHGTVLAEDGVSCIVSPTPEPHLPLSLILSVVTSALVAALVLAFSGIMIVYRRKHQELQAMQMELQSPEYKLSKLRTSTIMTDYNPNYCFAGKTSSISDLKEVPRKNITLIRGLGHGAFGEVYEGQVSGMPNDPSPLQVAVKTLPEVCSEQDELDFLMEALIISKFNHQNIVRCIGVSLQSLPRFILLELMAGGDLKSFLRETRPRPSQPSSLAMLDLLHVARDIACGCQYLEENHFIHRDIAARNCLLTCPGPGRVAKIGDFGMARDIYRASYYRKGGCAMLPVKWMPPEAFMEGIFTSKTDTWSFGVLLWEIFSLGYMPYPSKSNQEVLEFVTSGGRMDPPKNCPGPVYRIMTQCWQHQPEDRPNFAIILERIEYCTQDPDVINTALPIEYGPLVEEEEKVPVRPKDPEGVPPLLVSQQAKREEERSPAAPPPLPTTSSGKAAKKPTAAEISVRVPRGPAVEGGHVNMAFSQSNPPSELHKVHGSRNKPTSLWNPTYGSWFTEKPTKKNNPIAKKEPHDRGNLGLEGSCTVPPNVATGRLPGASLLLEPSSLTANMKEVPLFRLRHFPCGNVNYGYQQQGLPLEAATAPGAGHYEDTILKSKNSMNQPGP

- remaining activity at 1 µM (ALK; [1]): 81%
- remaining activity at 1 µM (Abl_phos; [1]): 63.5%
- remaining activity at 1 µM (BMPR1A; [1]): 100%
- remaining activity at 1 µM (Brk; [1]): 94%
- remaining activity at 1 µM (CDK4; [1]): 64%
- remaining activity at 1 µM (MLTK; [1]): 84.5%
- remaining activity at 1 µM (STK32B; [1]): 100%
- remaining activity at 1 µM (TBK1; [1]): 82%
- remaining activity at 1 µM (mTOR; [1]): 98.5%
SMILES: CC(C)(C)NS(=O)(=O)c1cccc(NC(=O)c2ccc(S(=O)(=O)NC(C)(C)C)cc2N2CCC3(CC2)CC3)c1 [AM-1882]

- remaining activity at 1 µM (ALK; [2]): 89%
- remaining activity at 1 µM (Abl_phos; [2]): 98.5%
- remaining activity at 1 µM (BMPR1A; [2]): 93.5%
- remaining activity at 1 µM (Brk; [2]): 93.5%
- remaining activity at 1 µM (CDK4; [2]): 98.5%
- remaining activity at 1 µM (MLTK; [2]): 100%
- remaining activity at 1 µM (STK32B; [2]): 96%
- remaining activity at 1 µM (TBK1; [2]): 100%
- remaining activity at 1 µM (mTOR; [2]): 100%
SMILES: C[C@@H]1CN(c2cccc(NC(=O)c3ccc(NS(=O)(=O)CCO)cc3N3CCC4(CC3)CC4)n2)CCO1 [AM-5308]

- remaining activity at 1 µM (ALK; [3]): 100%
- remaining activity at 1 µM (Abl_phos; [3]): 46%
- remaining activity at 1 µM (BMPR1A; [3]): 100%
- remaining activity at 1 µM (Brk; [3]): 95%
- remaining activity at 1 µM (CDK4; [3]): 100%
- remaining activity at 1 µM (MLTK; [3]): 90%
- remaining activity at 1 µM (STK32B; [3]): 100%
- remaining activity at 1 µM (TBK1; [3]): 87%
- remaining activity at 1 µM (mTOR; [3]): 100%
SMILES: CC(C)(CO)Nc1ccc(C(=O)Nc2cccc(S(=O)(=O)C3CCCC3)c2)c(N2CCC3(CC2)CC3)n1 [AM-0277]
